This is an account of results in patent publication US12448372B2, “Class of triaromatic compounds targeting bifunctional phosphorylation site of STAT3 and applications thereof” (SHANGHAI YUYAO BIOTECH LTD., priority 2019, dated 2025).

For one data set, the target named is STAT3 protein (Homo sapiens, UniProt P40763). Description: Binding activity to STAT3 protein by microscale thermophoresis (MST). As to conditions: purified STAT3 recombinant protein. The text has this: (1) Determination of Binding Activities of Compounds to STAT3 Protein by Microscale Thermophoresis (MST) Method
Chain of STAT3 protein (P40763 whole entry): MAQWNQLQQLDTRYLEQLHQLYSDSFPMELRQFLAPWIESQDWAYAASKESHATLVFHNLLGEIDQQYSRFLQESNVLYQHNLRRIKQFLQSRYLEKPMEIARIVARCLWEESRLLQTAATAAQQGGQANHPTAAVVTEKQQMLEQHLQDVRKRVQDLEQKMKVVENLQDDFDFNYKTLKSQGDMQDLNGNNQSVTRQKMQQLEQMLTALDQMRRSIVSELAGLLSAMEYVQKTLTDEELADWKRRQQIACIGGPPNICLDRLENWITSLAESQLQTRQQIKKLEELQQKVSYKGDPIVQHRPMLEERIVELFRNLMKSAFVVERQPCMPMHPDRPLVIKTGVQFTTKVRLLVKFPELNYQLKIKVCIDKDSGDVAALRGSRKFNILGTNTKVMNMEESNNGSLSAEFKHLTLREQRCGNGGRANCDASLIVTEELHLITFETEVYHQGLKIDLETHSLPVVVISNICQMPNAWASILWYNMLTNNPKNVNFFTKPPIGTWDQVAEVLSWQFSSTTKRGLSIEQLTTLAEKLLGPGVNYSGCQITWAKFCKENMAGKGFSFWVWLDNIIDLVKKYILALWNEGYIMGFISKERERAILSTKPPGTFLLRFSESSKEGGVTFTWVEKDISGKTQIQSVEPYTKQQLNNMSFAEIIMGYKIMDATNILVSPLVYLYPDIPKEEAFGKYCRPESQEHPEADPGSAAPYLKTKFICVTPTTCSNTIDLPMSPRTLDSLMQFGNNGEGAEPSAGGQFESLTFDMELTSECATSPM
(§1) The microscale thermophoresis (MST) technique is a simple, rapid, and accurate method for quantifying biomolecular interactions. It can measure the movement of molecules in a microscopic temperature gradient field, as well as detect changes of molecular hydration shell, charge and size. When the Nanotemper microscale thermophoresis instrument locally heated by a infrared laser, molecules will move in a directional manner, then the molecular distribution ratio in the temperature gradient field are analyzed by a fluorescence to detect whether a small molecule compound binds to a target protein. The experimental operation is as follows: firstly, compounds to be tested are diluted in a gradient using MST test buffer, total 16 concentrations being configured; subsequently, the purified STAT3 recombinant protein is labeled using the HIS tag labeling kit, and the final concentration of the labeled protein is 100-200 nM; the labeled STAT3 proteins are well mixed with the diluted compounds and incubated and protected from light for 30 minutes; finally the samples were loaded by capillary tube and detected on the instrument. The binding constants (K^D) of small molecules to STAT3 protein were analyzed by Mo. analysis software.
Background: Microscale thermophoresis detects binding through changes in fluorescence in a small temperature gradient.

For a further data set, the system named is HCC827. Nature of the data set: Cell proliferation by MTS method, HCC827. As to conditions: Homo sapiens; Table 1, HCC827; read-out: Tumour cell proliferative activity/IC50(nM) Lung Cancer HCC827. The format is cell-based. The text has this:
(§2) (2) Detection of Cell Proliferation by MTS Method
(§3) The MTS assay is a method for indirectly determining the number of living cells via colourimetric method. MTS is a newly synthesised tetrazole compound that reflects cell viability, which can be reduced by succinate dehydrogenase in the mitochondria of living cells to an orange-coloured formazan with an absorbance of the reduced product measured at 490 nm being in proportion to the number of living cells, thus reflecting the cell viability. This assay can be used to evaluate the effect of the compound on the proliferation of pancreatic cancer cells, thereby determining the inhibitory effect of the compound on the proliferation of pancreatic cancer cells and to calculate the IC^50. Each cells were inoculated uniformly into a 96-well plate at a density of 1-20×10^3 cells/well, 100 μL per well, and placed in a constant temperature incubator until the cells adhered to the wall. The control group was added with the corresponding medium and the experimental groups were given different concentrations of the compound prepared by the examples of the present invention, and the cells were taken out 24-96 h after administration for observing the cell state under a microscope. Under light-proof conditions, MTS was added and well mixed, the mixture was placed in a constant temperature incubator at 37° C., and the light absorption value were measured using an enzyme marker at 490 nm and the experiment was repeated for three times, IC50 was calculated with GraphPad5 Prism software.
For orientation: Tetrazolium dyes change colour on reduction, which living cells bring about.

A further data set deals with Capan-2. Description: Cell proliferation by MTS method, Capan-2. The format is cell-based.
From the text: as §2, §3

In a further data set the test system is Huh7. Description: Cell proliferation by MTS method, Huh7. The format is cell-based. Conditions: Homo sapiens, Huh-7; Table 1, Huh7; read-out: Tumour cell proliferative activity/IC50(nM) Liver Cancer Huh7.
From the text: as §2, §3

The subject of the next data set is MKN45. Description: Cell proliferation by MTS method, MKN45. It is filed as cell-based. As to conditions: Homo sapiens, MKN-45; Table 1, MKN45; read-out: Tumour cell proliferative activity/IC50(nM) gastric Cancer MKN45.
From the text: as §2, §3

The conditions of data set [1]: dose of 25 mg/kg, cited from earlier work.
For a further data set, the target named is STAT3 SH2 domain (Homo sapiens, UniProt P40763). Nature of the data set: Microscale thermophoresis binding to STAT3 SH2 domain. As to conditions: MST, FIG. 5A; read-out: affinity for the STAT3 SH2 domain.
Chain of STAT3 SH2 domain (P40763 580-670 limits assumed): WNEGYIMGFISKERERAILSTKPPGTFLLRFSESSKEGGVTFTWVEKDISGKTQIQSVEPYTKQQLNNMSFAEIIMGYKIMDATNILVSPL
From the text: as §1
(1) Microscale Thermophoresis Experiment
The method is as described in Example 40.

Where [2] appears, read: Homo sapiens, Table 1, Capan-2, read-out: Tumour cell proliferative activity/IC50(nM) Pancreatic Cancer Capan-2.

Read-outs that look alike come from different tables or passages of the source.

Take `Cn1c(C(=O)N2CCN(Cc3ccc(C(F)(F)F)cc3)CC2)cc2ccc(Oc3cnc(-c4nc(-c5ccc(C(F)(F)F)cc5)no4)cn3)cc21` [Example 30, (1-methyl-6-((5-(3-(4-(trifluoromethyl)phenyl)-1,2,4-oxadiazol-5-yl)pyrazin-2-yl)oxy)-1H-indol-2-yl)(4-(4-(trifluoromethyl)benzyl)piperazin-1-yl)methanone]: the Kd at STAT3 protein is below 1000 nM. Moreover, the IC50 with HCC827, in the data set with Capan-2 (setting [2]), with Huh7 and with MKN45 was below 1000 nM each time.

`COc1ccc(CN2CCN(C(=O)c3cc4ccc(Oc5cnc(-c6nc(-c7ccc(C(F)(F)F)cc7)no6)cn5)cc4n3C)CC2)cc1` [Example 31, (4-(4-methoxybenzyl)piperazin-1-yl)(1-methyl-6-((5-(3-(4-(trifluoromethyl)phenyl)-1,2,4-oxadiazol-5-yl)pyrazin-2-yl)oxy)-1H-indol-2-yl)methanone]: the Kd at STAT3 protein is below 100 nM. In addition, the IC50 in the data set with HCC827, in the data set on Capan-2 (setting [2]), with Huh7 and with MKN45 was below 100 nM in each case.

In the case of `Cn1c(C(=O)N2CCN(Cc3cccc(OCC(F)(F)F)c3)CC2)cc2ccc(Oc3cnc(-c4nc(-c5ccc(C(F)(F)F)cc5)no4)cn3)cc21` [Example 32, (1-methyl-6-((5-(3-(4-(trifluoromethyl)phenyl)-1,2,4-oxadiazol-5-yl)pyrazin-2-yl)oxy)-1H-indol-2-yl)(4-(3-(2,2,2-trifluoroethoxy)benzyl)piperazin-1-yl)methanone], the Kd on STAT3 protein was below 100 nM. Moreover, the IC50 with HCC827, in the data set on Capan-2 (setting [2]), in the data set on Huh7 and in the data set with MKN45 was below 100 nM each time.

In the case of `Cn1c(C(=O)N2CCN(Cc3ccccc3OCC(F)(F)F)CC2)cc2ccc(Oc3cnc(-c4nc(-c5ccc(C(F)(F)F)cc5)no4)cn3)cc21` [Example 33, (1-methyl-6-((5-(3-(4-(trifluoromethyl)phenyl)-1,2,4-oxadiazol-5-yl)pyrazin-2-yl)oxy)-1H-indol-2-yl)(4-(2-(2,2,2-trifluoroethoxy)benzyl)piperazin-1-yl)methanone], the Kd on STAT3 protein was below 100 nM. For the same compound, the IC50 in the data set with HCC827, with Capan-2 (setting [2]), in the data set with Huh7 and in the data set with MKN45 was below 1000 nM throughout.

`CN1CCN(C(=O)c2cc3ccc(Oc4cnc(-c5nc(-c6ccc(C(F)(F)F)cc6)no5)cn4)cc3n2C)CC1` [Example 34, (1-methyl-6-((5-(3-(4-(trifluoromethyl)phenyl)-1,2,4-oxadiazol-5-yl)pyrazin-2-yl)oxy)-1H-indol-2-yl)(4-methylpiperazin-1-yl)methanone]: on STAT3 protein, the Kd is below 100 nM. The IC50 in the data set on HCC827, with Capan-2 (setting [2]), in the data set on Huh7 and with MKN45 was below 1000 nM throughout.

Consider `CCN1CCN(C(=O)c2cc3ccc(Oc4cnc(-c5nc(-c6ccc(C(F)(F)F)cc6)no5)cn4)cc3n2C)CC1` [Example 35, (4-ethylpiperazin-1-yl)(1-methyl-6-((5-(3-(4-(trifluoromethyl)phenyl)-1,2,4-oxadiazol-5-yl)pyrazin-2-yl)oxy)-1H-indol-2-yl)methanone], for which, at STAT3 protein, the Kd is below 100 nM. Further, the IC50 in the data set on HCC827, in the data set on Capan-2 (setting [2]), in the data set on Huh7 and with MKN45 was below 1000 nM in each case.

For `CCCN1CCN(C(=O)c2cc3ccc(Oc4cnc(-c5nc(-c6ccc(C(F)(F)F)cc6)no5)cn4)cc3n2C)CC1` [Example 36], the Kd on STAT3 protein is below 100 nM. The IC50 in the data set on HCC827, with Capan-2 (setting [2]), in the data set with Huh7 and with MKN45 was below 1000 nM each time.

For `COC(=O)CN1CCN(C(=O)c2cc3ccc(Oc4cnc(-c5nc(-c6ccc(C(F)(F)F)cc6)no5)cn4)cc3n2C)CC1` [Example 37, Methyl 2-(4-(1-methyl-6-((5-(3-(4-(trifluoromethyl)phenyl)-1,2,4-oxadiazol-5-yl)pyrazin-2-yl)oxy)-1H-indol-2-carbonyl)piperazin-1-yl)acetate], the Kd at STAT3 protein is below 100 nM. For the same compound, the IC50 in the data set with HCC827, with Capan-2 (setting [2]), in the data set on Huh7 and in the data set with MKN45 was below 1000 nM each time.

In the case of `Cn1c(C(=O)N2CCN(C(=O)CCl)CC2)cc2ccc(Oc3cnc(-c4nc(-c5ccc(C(F)(F)F)cc5)no4)cn3)cc21` [Example 38, 2-chloro-1-(4-(1-methyl-6-((5-(3-(4-(trifluoromethyl)phenyl)-1,2,4-oxadiazol-5-yl)pyrazin-2-yl)oxy)-1H-indol-2-carbonyl)piperazin-1-yl)ethanone], at STAT3 protein, the Kd was below 100 nM. Further, the IC50 with HCC827, with Capan-2 (setting [2]), in the data set with Huh7 and in the data set on MKN45 was below 1000 nM in each case.

As to `Cn1c(C(=O)N2CCN(C(=O)c3ccc(C(F)(F)F)cc3)CC2)cc2ccc(Oc3cnc(-c4nc(-c5ccc(C(F)(F)F)cc5)no4)cn3)cc21` [Example 39], the Kd on STAT3 protein was below 100 nM. In addition, the IC50 with HCC827, in the data set on Capan-2 (setting [2]), in the data set with Huh7 and with MKN45 was below 1000 nM each time.

Take `Cc1nc(-c2nc(-c3ccc(OC(F)(F)F)cc3)no2)nn1Cc1cccc(N2CCC(S(C)(=O)=O)CC2)c1` [IACS-010759, reference compound]: the IC50 with Capan-2 (Capan-2, FIG. 5B, read-out: IC50, inhibition of proliferation of pancreatic cancer cells) was 2.7 nM. Besides, the “mortality in the mouse model” value in data set [1] (25 mg/kg) is reported as “all mice in the administered group died”; in data set [1] (listed as IACS-101759, 25 mg/kg) it was “all mice died”. The Kd at STAT3 SH2 domain came out at 2780 nM.
